Results reported in the supplement of paper PMC10307832.

How the values were obtained:
Assay in all cases: relative viability (nuclei count vs DMSO), 5 days (fraction); higher = more cells survive
LXF-289 = system: LXF-289
Procedure, shortened: (§1)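 Lung cancer cell lines in 1536-well plates got either a single drug or a fixed anchor-drug dose together with five library-drug doses (not always all listed) in √10 steps, by pin tool, on the day after seeding. Nuclei were counted after 5 days, and relative viability is the treated-to-vehicle ratio of nuclei counts. Values are medians of duplicate plates.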

NCI-H1793 = system: NCI-H1793
Procedure, shortened: as §1

NCI-H322M = system: NCI-H322M
Procedure, shortened: as §1

HCC-827 = system: HCC-827
Procedure, shortened: as §1

CAL-12T = system: CAL-12T
Procedure, shortened: as §1

NCI-H1650 = system: NCI-H1650
Procedure, shortened: as §1

201T = system: 201T
Procedure, shortened: as §1

NCI-H2405 = system: NCI-H2405
Procedure, shortened: as §1

BEN = system: BEN
Procedure, shortened: as §1

HCC-44 = system: HCC-44
Procedure, shortened: as §1

NCI-H2087 = system: NCI-H2087
Procedure, shortened: as §1

NCI-H1437 = system: NCI-H1437
Procedure, shortened: as §1

NCI-H1355 = system: NCI-H1355
Procedure, shortened: as §1

NCI-H3122 = system: NCI-H3122
Procedure, shortened: as §1

NCI-H1395 = system: NCI-H1395
Procedure, shortened: as §1

NCI-H647 = system: NCI-H647
Procedure, shortened: as §1

LCLC-103H = system: LCLC-103H
Procedure, shortened: as §1

SK-LU-1 = system: SK-LU-1
Procedure, shortened: as §1

NCI-H2023 = system: NCI-H2023
Procedure, shortened: as §1

LCLC-97TM1 = system: LCLC-97TM1
Procedure, shortened: as §1

NCI-H2228 = system: NCI-H2228
Procedure, shortened: as §1

NCI-H727 = system: NCI-H727
Procedure, shortened: as §1

HOP-62 = system: HOP-62
Procedure, shortened: as §1

RERF-LC-KJ = system: RERF-LC-KJ
Procedure, shortened: as §1

Clc1ccc(Nc2nnc(Cc3ccncc3)c3ccccc23)cc1 [Vatalanib] + COc1cccc2cc(-c3nc([C@H]4CC[C@H](C(=O)O)CC4)n4ncnc(N)c34)[nH]c12 [OSI-027] (partner 0.5 µM)
relative viability (LXF-289; first compound 0.04 µM): 0.824 | relative viability (LXF-289; first compound 0.1265 µM): 0.802 | relative viability (LXF-289; first compound 0.4 µM): 0.858 | relative viability (LXF-289; first compound 1.265 µM): 0.806 | relative viability (LXF-289; first compound 4 µM): 0.761 | relative viability (NCI-H1793; first compound 0.04 µM): 0.268 | relative viability (NCI-H1793; first compound 0.1265 µM): 0.226 | relative viability (NCI-H1793; first compound 0.4 µM): 0.309 | relative viability (NCI-H1793; first compound 1.265 µM): 0.217 | relative viability (NCI-H1793; first compound 4 µM): 0.184 | relative viability (NCI-H322M; first compound 0.04 µM): 0.573 | relative viability (NCI-H322M; first compound 0.1265 µM): 0.546 | relative viability (NCI-H322M; first compound 0.4 µM): 0.493 | relative viability (NCI-H322M; first compound 1.265 µM): 0.52 | relative viability (NCI-H322M; first compound 4 µM): 0.481 | relative viability (HCC-827; first compound 0.04 µM): 0.818 | relative viability (HCC-827; first compound 0.1265 µM): 0.729 | relative viability (HCC-827; first compound 0.4 µM): 0.739 | relative viability (HCC-827; first compound 1.265 µM): 0.744 | relative viability (HCC-827; first compound 4 µM): 0.705 | relative viability (CAL-12T; first compound 0.04 µM): 0.574 | relative viability (CAL-12T; first compound 0.1265 µM): 0.523 | relative viability (CAL-12T; first compound 0.4 µM): 0.583 | relative viability (CAL-12T; first compound 1.265 µM): 0.556 | relative viability (CAL-12T; first compound 4 µM): 0.581 | relative viability (NCI-H1650; first compound 0.04 µM): 0.769 | relative viability (NCI-H1650; first compound 0.1265 µM): 0.454 | relative viability (NCI-H1650; first compound 0.4 µM): 0.438 | relative viability (NCI-H1650; first compound 1.265 µM): 0.633 | relative viability (NCI-H1650; first compound 4 µM): 0.514 | relative viability (201T; first compound 0.04 µM): 0.759 | relative viability (201T; first compound 0.1265 µM): 0.698 | relative viability (201T; first compound 0.4 µM): 0.889 | relative viability (201T; first compound 1.265 µM): 0.657 | relative viability (201T; first compound 4 µM): 0.666 | relative viability (NCI-H2405; first compound 0.04 µM): 0.665 | relative viability (NCI-H2405; first compound 0.1265 µM): 0.631 | relative viability (NCI-H2405; first compound 1.265 µM): 0.666 | relative viability (NCI-H2405; first compound 4 µM): 0.608 | relative viability (BEN; first compound 0.04 µM): 0.297 | relative viability (BEN; first compound 0.1265 µM): 0.314 | relative viability (BEN; first compound 0.4 µM): 0.31 | relative viability (BEN; first compound 1.265 µM): 0.295 | relative viability (BEN; first compound 4 µM): 0.281 | relative viability (HCC-44; first compound 0.04 µM): 0.524 | relative viability (HCC-44; first compound 0.1265 µM): 0.652 | relative viability (HCC-44; first compound 0.4 µM): 0.438 | relative viability (HCC-44; first compound 1.265 µM): 0.439 | relative viability (HCC-44; first compound 4 µM): 0.355 | relative viability (NCI-H2087; first compound 0.04 µM): 0.673 | relative viability (NCI-H2087; first compound 0.1265 µM): 0.468 | relative viability (NCI-H2087; first compound 0.4 µM): 0.647 | relative viability (NCI-H2087; first compound 1.265 µM): 0.548 | relative viability (NCI-H2087; first compound 4 µM): 0.564 | relative viability (NCI-H1437; first compound 0.04 µM): 0.942 | relative viability (NCI-H1437; first compound 0.1265 µM): 0.949 | relative viability (NCI-H1437; first compound 0.4 µM): 0.937 | relative viability (NCI-H1437; first compound 1.265 µM): 0.792 | relative viability (NCI-H1437; first compound 4 µM): 0.879 | relative viability (NCI-H1355; first compound 0.04 µM): 0.427 | relative viability (NCI-H1355; first compound 0.1265 µM): 0.431 | relative viability (NCI-H1355; first compound 0.4 µM): 0.435 | relative viability (NCI-H1355; first compound 1.265 µM): 0.413 | relative viability (NCI-H1355; first compound 4 µM): 0.34 | relative viability (NCI-H3122; first compound 0.04 µM): 1.13 | relative viability (NCI-H3122; first compound 0.1265 µM): 0.982 | relative viability (NCI-H3122; first compound 1.265 µM): 0.934 | relative viability (NCI-H3122; first compound 4 µM): 0.848 | relative viability (NCI-H1395; first compound 0.04 µM): 0.632 | relative viability (NCI-H1395; first compound 0.1265 µM): 0.634 | relative viability (NCI-H1395; first compound 0.4 µM): 0.597 | relative viability (NCI-H1395; first compound 1.265 µM): 0.651 | relative viability (NCI-H1395; first compound 4 µM): 0.604 | relative viability (NCI-H647; first compound 0.04 µM): 0.654 | relative viability (NCI-H647; first compound 0.1265 µM): 0.597 | relative viability (NCI-H647; first compound 0.4 µM): 0.634 | relative viability (NCI-H647; first compound 1.265 µM): 0.568 | relative viability (NCI-H647; first compound 4 µM): 0.671 | relative viability (LCLC-103H; first compound 0.04 µM): 0.496 | relative viability (LCLC-103H; first compound 0.1265 µM): 0.412 | relative viability (LCLC-103H; first compound 0.4 µM): 0.55 | relative viability (LCLC-103H; first compound 1.265 µM): 0.503 | relative viability (LCLC-103H; first compound 4 µM): 0.457 | relative viability (SK-LU-1; first compound 0.04 µM): 0.365 | relative viability (SK-LU-1; first compound 0.1265 µM): 0.346 | relative viability (SK-LU-1; first compound 0.4 µM): 0.395 | relative viability (SK-LU-1; first compound 1.265 µM): 0.357 | relative viability (SK-LU-1; first compound 4 µM): 0.348 | relative viability (NCI-H2023; first compound 0.04 µM): 0.376 | relative viability (NCI-H2023; first compound 0.1265 µM): 0.366 | relative viability (NCI-H2023; first compound 0.4 µM): 0.419 | relative viability (NCI-H2023; first compound 1.265 µM): 0.342 | relative viability (NCI-H2023; first compound 4 µM): 0.343 | relative viability (LCLC-97TM1; first compound 0.04 µM): 0.45 | relative viability (LCLC-97TM1; first compound 0.1265 µM): 0.398 | relative viability (LCLC-97TM1; first compound 0.4 µM): 0.552 | relative viability (LCLC-97TM1; first compound 1.265 µM): 0.531 | relative viability (LCLC-97TM1; first compound 4 µM): 0.42 | relative viability (NCI-H2228; first compound 0.04 µM): 0.568 | relative viability (NCI-H2228; first compound 0.1265 µM): 0.566 | relative viability (NCI-H2228; first compound 0.4 µM): 0.604 | relative viability (NCI-H2228; first compound 1.265 µM): 0.589 | relative viability (NCI-H2228; first compound 4 µM): 0.504 | relative viability (NCI-H727; first compound 0.04 µM): 0.562 | relative viability (NCI-H727; first compound 0.1265 µM): 0.545 | relative viability (NCI-H727; first compound 0.4 µM): 0.653 | relative viability (NCI-H727; first compound 1.265 µM): 0.562 | relative viability (NCI-H727; first compound 4 µM): 0.45 | relative viability (HOP-62; first compound 0.04 µM): 0.906 | relative viability (HOP-62; first compound 0.1265 µM): 0.804 | relative viability (HOP-62; first compound 0.4 µM): 0.833 | relative viability (HOP-62; first compound 1.265 µM): 0.741 | relative viability (HOP-62; first compound 4 µM): 0.875 | relative viability (RERF-LC-KJ; first compound 0.04 µM): 0.657 | relative viability (RERF-LC-KJ; first compound 0.1265 µM): 0.591 | relative viability (RERF-LC-KJ; first compound 0.4 µM): 0.588 | relative viability (RERF-LC-KJ; first compound 1.265 µM): 0.549 | relative viability (RERF-LC-KJ; first compound 4 µM): 0.564
